Values joined by “and” are separate entries in the source; they are usually repeats but may differ in a detail not shown here. Equal values may be shown once. Toxic doses and inconclusive results are not listed.

This note sets out measurements from PubChem BioAssay AID328 (DTP/NCI, 2004).

The test system of the test is BDF1 mice, P388 leukemia ip, median survival T/C. The test is described as follows: NCI In Vivo Anticancer Drug Screen. Data for tumor model P388 Leukemia (intraperitoneal) in B6D2F1 (BDF1) mice. The conditions noted are these: endpoint: median survival time, higher = longer survival. In outline:
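In tumour-bearing mice, survival after compound treatment is set against the vehicle group and given as a quotient.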

Where [1] appears, read: dose: 50.0 mg/kg/injection, schedule: Q01DX009 (ip), vehicle: Klucel (hydroxypropylcellulose) (HPC).
Where [2] appears, read: dose: 100.0 mg/kg/injection, schedule: Q01DX009 (ip), vehicle: Klucel (hydroxypropylcellulose) (HPC).
[3] abbreviates: dose: 200.0 mg/kg/injection, schedule: Q01DX009 (ip), vehicle: Klucel (hydroxypropylcellulose) (HPC).
Setting [4] is: dose: 100.0 mg/kg/injection, schedule: Q01DX009 (ip), vehicle: saline.
Setting [5] is: dose: 200.0 mg/kg/injection, schedule: Q01DX009 (ip), vehicle: saline.
[6] abbreviates: dose: 6.25 mg/kg/injection, schedule: Q01DX009 (ip), vehicle: water.
Setting [7] is: dose: 12.5 mg/kg/injection, schedule: Q01DX009 (ip), vehicle: water.
Setting [8] is: dose: 12.5 mg/kg/injection, schedule: Q04DX003 (ip), vehicle: water.
The mark [9] stands for this setting: dose: 25.0 mg/kg/injection, schedule: Q01DX009 (ip), vehicle: water.
[10] abbreviates: dose: 25.0 mg/kg/injection, schedule: Q04DX003 (ip), vehicle: water.
The mark [11] stands for this setting: dose: 50.0 mg/kg/injection, schedule: Q01DX009 (ip), vehicle: water.
[12] abbreviates: dose: 50.0 mg/kg/injection, schedule: Q04DX003 (ip), vehicle: water.
Where [13] appears, read: dose: 100.0 mg/kg/injection, schedule: Q01DX009 (ip), vehicle: water.
[14] abbreviates: dose: 100.0 mg/kg/injection, schedule: Q04DX003 (ip), vehicle: water.
[15] abbreviates: dose: 50.0 mg/kg/injection, schedule: Q01DX009 (ip), vehicle: saline with Tween-80.
[16] abbreviates: dose: 100.0 mg/kg/injection, schedule: Q01DX009 (ip), vehicle: saline with Tween-80.
[17] abbreviates: dose: 200.0 mg/kg/injection, schedule: Q01DX009 (ip), vehicle: saline with Tween-80.
[18] abbreviates: dose: 50.0 mg/kg/injection, schedule: Q04DX003 (ip), vehicle: saline.
Setting [19] is: dose: 100.0 mg/kg/injection, schedule: Q04DX003 (ip), vehicle: saline.
Setting [20] is: dose: 200.0 mg/kg/injection, schedule: Q04DX003 (ip), vehicle: saline.
[21] abbreviates: dose: 400.0 mg/kg/injection, schedule: Q04DX003 (ip), vehicle: saline.

For the molecule `NC(CCCC(=O)O)P(=O)(O)O` (centres undefined), the T/C is 112 % of control under setting [1], 110 % of control under setting [2] and 113 % of control under setting [3].

Turning to `CCCCCCCCCCC(C(=O)O)C1(C(=O)O)CCC(=O)O1` (centres undefined), the T/C under setting [1] is 107 % of control, the T/C under setting [2] was 107 % of control and the T/C under setting [3] is 98 % of control.

Consider `NC(Cc1cc(Cl)c(O)c(Cl)c1)C(=O)O` (centres undefined), for which the T/C was 94 % of control under setting [4]; 97 % of control (dose: 150.0 mg/kg/injection, schedule: Q01DX009 (ip), vehicle: saline); 105 % of control under setting [5].

For the molecule `FC(Cl)(Cl)c1nc2nc(Cl)c(Cl)nc2[nH]1`, the T/C by setting is: (dose: 3.12 mg/kg/injection, schedule: Q01DX009 (ip), vehicle: water) 104 % of control; under setting [6], 107 % of control; (dose: 6.25 mg/kg/injection, schedule: Q04DX003 (ip), vehicle: water) 116 % of control; under setting [7], 100 % of control; under setting [8], 116 % of control; under setting [9], 108 % of control. Moreover, the T/C under setting [10] was 102 % of control; the T/C under setting [11] is 118 % of control; the T/C under setting [12] was 116 % of control; the T/C under setting [13] was 101 % of control; the T/C under setting [14] was 102 % of control.

Turning to `CCOC(=S)SCC(=O)Nc1ccccc1`, the T/C is 93 % of control (dose: 25.0 mg/kg/injection, schedule: Q01DX009 (ip), vehicle: saline with Tween-80); 90 % of control under setting [15]; 103 % of control under setting [16].

As to `CCCCCCCOc1cccc(OCCCC[N+]2(CC)CCCCC2)c1`, the T/C (dose: 6.25 mg/kg/injection, schedule: Q01DX009 (ip), vehicle: saline) is 110 % of control.

For `COc1ccccc1CN1CCCN(Cc2ccccc2OC)C1c1ccc(N(CCCl)CCCl)cc1C`, the T/C is 95 % of control (dose: 65.0 mg/kg/injection, schedule: Q01DX009 (ip), vehicle: Klucel (hydroxypropylcellulose) (HPC)) and 109 % of control under setting [2].

Take `C#CCOCC(O)CO` (centres undefined): the T/C is 88 % of control under setting [6]; 106 % of control under setting [7]; 93 % of control under setting [8]; 117 % of control under setting [9]; 111 % of control under setting [10]; 117 % of control and 123 % of control under setting [11]. The T/C runs as follows: under setting [12], 95 % of control; under setting [13], 95 % of control and 122 % of control; under setting [14], 98 % of control; (dose: 200.0 mg/kg/injection, schedule: Q01DX009 (ip), vehicle: water) 110 % of control.

Turning to `Nc1nc(C=O)c(CCc2ccccc2)c(=O)[nH]1`, the T/C (dose: 50.0 mg/kg/injection, schedule: Q04DX003 (ip), vehicle: saline with Tween-80) is 113 % of control.

Take `CC(C)c1cccc(C(C)C)c1NC(=O)N1CCOCC1`: the T/C was 100 % of control under setting [15], 93 % of control under setting [16] and 90 % of control under setting [17].

Regarding `CNC(=O)c1ccccc1Sc1ccccc1`, the T/C reads like this: under setting [15], 104 % of control; under setting [16], 98 % of control; under setting [17], 106 % of control.

Take `O=C1OC(Cc2ccccc2)(c2ccccc2)c2ccccc21` (centres undefined): the T/C is 90 % of control under setting [15] and 90 % of control under setting [16].

As for `C/C(N=Nc1ccccc1[N+](=O)[O-])=N\Nc1ccccc1`, the T/C (dose: 100.0 mg/kg/injection, schedule: Q04DX003 (ip), vehicle: Klucel (hydroxypropylcellulose) (HPC)) is 122 % of control; the T/C (dose: 200.0 mg/kg/injection, schedule: Q04DX003 (ip), vehicle: Klucel (hydroxypropylcellulose) (HPC)) is 122 % of control; the T/C (dose: 400.0 mg/kg/injection, schedule: Q04DX003 (ip), vehicle: Klucel (hydroxypropylcellulose) (HPC)) is 113 % of control.

For `O=C1NC(c2cccc(OCc3ccccc3)c2)Nc2ccccc21` (centres undefined), the T/C was 97 % of control (dose: 3.13 mg/kg/injection, schedule: Q01DX009 (ip), vehicle: Klucel (hydroxypropylcellulose) (HPC)); 94 % of control and 110 % of control (dose: 25.0 mg/kg/injection, schedule: Q01DX009 (ip), vehicle: Klucel (hydroxypropylcellulose) (HPC)); 108 % of control under setting [1]; 150 % of control (dose: 62.5 mg/kg/injection, schedule: Q01DX009 (ip), vehicle: Klucel (hydroxypropylcellulose) (HPC)); 120 % of control under setting [2]; 166 % of control (dose: 250.0 mg/kg/injection, schedule: Q01DX009 (ip), vehicle: Klucel (hydroxypropylcellulose) (HPC)).

Turning to `CC(=O)CC(C)=O.CC(=O)CC(C)=O.c1cc[c]([Sn][c]2ccccc2)cc1`, the T/C is 160 % of control (dose: 100.0 mg/kg/injection, schedule: Q01DX001 (ip), vehicle: Klucel (hydroxypropylcellulose) (HPC)) and 166 % of control (dose: 200.0 mg/kg/injection, schedule: Q01DX001 (ip), vehicle: Klucel (hydroxypropylcellulose) (HPC)).

As to `CS(=O)c1ccccc1C(=O)O` (centres undefined), the T/C is 106 % of control (dose: 100.0 mg/kg/injection, schedule: Q04DX003 (ip), vehicle: saline with Tween-80); 110 % of control (dose: 200.0 mg/kg/injection, schedule: Q04DX003 (ip), vehicle: saline with Tween-80); 109 % of control (dose: 400.0 mg/kg/injection, schedule: Q04DX003 (ip), vehicle: saline with Tween-80).

As to `O=C(NC1CCCCC1)O/N=C/c1ccccn1`, the T/C (dose: 100.0 mg/kg/injection, schedule: Q01DX001 (ip), vehicle: other) is 87 % of control and the T/C (dose: 400.0 mg/kg/injection, schedule: Q01DX001 (ip), vehicle: other) is 91 % of control.

`Cc1nc2cnn(C)c2nc1C`: the T/C by setting is: under setting [18], 114 % of control; under setting [19], 113 % of control; under setting [20], 107 % of control; under setting [21], 88 % of control.

In the case of `NC(=O)C1(NC2CCCCC2)CCN(Cc2ccccc2)CC1`, the T/C is, setting by setting: (dose: 50.0 mg/kg/injection, schedule: Q01DX009 (ip), vehicle: gum acacia) 107 % of control; (dose: 50.0 mg/kg/injection, schedule: Q04DX003 (ip), vehicle: gum acacia) 100 % of control; (dose: 100.0 mg/kg/injection, schedule: Q01DX009 (ip), vehicle: gum acacia) 107 % of control; (dose: 100.0 mg/kg/injection, schedule: Q04DX003 (ip), vehicle: gum acacia) 91 % of control.

Consider `CCCC(Nc1nccs1)Nc1nccs1`, for which the T/C under setting [15] is 107 % of control, the T/C under setting [16] was 101 % of control and the T/C under setting [17] was 101 % of control.

Regarding `COC(=O)c1ccc(-c2cc(Cl)c3cc(S(=O)(=O)F)ccc3n2)cc1`, the T/C runs as follows: under setting [16], 90 % of control; under setting [17], 90 % of control.

Consider `O=C(CC(O)(C(F)(F)F)C(F)(F)F)c1ccc([N+](=O)[O-])cc1`, for which the T/C (dose: 100.0 mg/kg/injection, schedule: Q01DX009 (ip), vehicle: other) was 95 % of control; the T/C (dose: 100.0 mg/kg/injection, schedule: Q04DX003 (ip), vehicle: other) was 110 % of control; the T/C (dose: 200.0 mg/kg/injection, schedule: Q01DX009 (ip), vehicle: other) was 95 % of control; the T/C (dose: 200.0 mg/kg/injection, schedule: Q04DX003 (ip), vehicle: other) was 95 % of control; the T/C (dose: 400.0 mg/kg/injection, schedule: Q01DX009 (ip), vehicle: other) was 100 % of control; the T/C (dose: 400.0 mg/kg/injection, schedule: Q04DX003 (ip), vehicle: other) is 100 % of control.

With `CCCCOP1(=O)N(C)CCN1C`, the T/C is, setting by setting: (dose: 50.0 mg/kg/injection, schedule: Q01DX009 (ip), vehicle: saline) 102 % of control; under setting [4], 105 % of control; under setting [5], 102 % of control.

With `CC1(C)/C(=C/c2ccccc2)C(=O)c2ccccc21`, the T/C (dose: 12.5 mg/kg/injection, schedule: Q04DX003 (ip), vehicle: saline) was 107 % of control; the T/C (dose: 25.0 mg/kg/injection, schedule: Q04DX003 (ip), vehicle: saline) was 118 % of control; the T/C under setting [18] is 91 % of control; the T/C under setting [19] was 103 % of control and 121 % of control; the T/C under setting [20] is 102 % of control and 112 % of control; the T/C under setting [21] was 110 % of control.
